From paper PMC4677665 (ACS Medicinal Chemistry Letters, 2015)

Columns and labels:
[1] = system: CRL-8155 human lymphocytic cells; settings: CRL-8155 cell line, 48 hours
[2] = system: panel of ∼80 diverse human kinases; settings: read-out: IC50s of the kinases inhibited below 1 μM; three of the 80 kinases
[3] = system: Type I RH strain T. gondii
[4] = Brain penetration experiment; format: in vivo, mice; settings: mouse, ip, 5 mg/kg

In the case of `CCOc1ccc2cc(-c3nn(CC(C)(C)CO)c(N)c3C(N)=O)ccc2n1` [Compound 22], the cytotoxicity [1] is reported as >40 µM.

With `COc1ccc2cc(-c3nn(C(C)(C)C)c(N)c3C(N)=O)cnc2c1` [Compound 28] the cytotoxicity [1] was >40 µM.

For `CCCOc1ccc2cc(-c3nn(C(C)(C)C)c(N)c3C(N)=O)cnc2c1` [Compound 31], the cytotoxicity [1] was >40 µM.

For `CCOc1ccc2cc(-c3nn(C(C)(C)C)c(N)c3C(N)=O)ccc2n1` [Compound 17], the cytotoxicity [1] was >40 µM.

In the case of `CC(C)Oc1ccc2cc(-c3nn(C(C)(C)C)c(N)c3C(N)=O)cnc2c1` [Compound 30], the cytotoxicity [1] is reported as >40 µM.

With `CCOc1ccc2cc(-c3nn(CC(C)(C)CO)c(N)c3C(N)=O)cnc2c1` [Compound 16] the cytotoxicity [1] was >40 µM.

In the case of `CCOc1ccc2cc(-c3nn(CC4CC4)c(N)c3C(N)=O)cnc2c1` [Compound 6], the cytotoxicity [1] is reported as >40 µM.

In the case of `CCOc1ccc2cc(-c3nn(C4CCC4)c(N)c3C(N)=O)cnc2c1` [Compound 7], the cytotoxicity [1] is reported as >40 µM.

With `CCOc1ccc2cc(-c3nn(C4CCCCCC4)c(N)c3C(N)=O)cnc2c1` [Compound 11] the cytotoxicity [1] was >40 µM.

In the case of `CCOc1ccc2cc(-c3nn(C4CCCC4)c(N)c3C(N)=O)cnc2c1` [Compound 8], the cytotoxicity [1] is reported as >40 µM.

In the case of `CC(C)(C)n1nc(-c2ccc3nc(OC4CC4)ccc3c2)c(C(N)=O)c1N` [Compound 35], the IC50 [2] is reported as 200 to 500 nM, the “T. gondii in the peritoneal fluid (in words)” value ([3]; 20 mg/kg) is reported as “eliminated T. gondii from the peritoneal fluid” and the “death of treated mice” value ([3]; 50 mg/kg group, po) is reported as “one mouse in the 35, 50 mg/kg group died on the fifth day of treatment”. For the same compound, the cytotoxicity [1] was >40 µM.

With `CC(C)(C)n1nc(-c2ccc3nc(OC4CCC4)ccc3c2)c(C(N)=O)c1N` [Compound 37] the cytotoxicity [1] was >40 µM.

With `CC(C)(C)n1nc(-c2cnc3cc(OCC4CC4)ccc3c2)c(C(N)=O)c1N` [Compound 32] the cytotoxicity [1] was >40 µM.

With `CC(C)(C)n1nc(-c2cnc3cc(F)ccc3c2)c(C(N)=O)c1N` [Compound 23] the cytotoxicity [1] was >40 µM.

With `CCOc1ccc2cc(-c3nn(CC4CC4)c(N)c3C(N)=O)ccc2n1` [Compound 19] the cytotoxicity [1] was >40 µM.

With `CCOc1ccc2cc(-c3nn(C(C)(C)C)c(N)c3C(N)=O)cnc2c1` [Compound 1] the “T. gondii infection, peritoneal parasite count (in words)” value ([3]; po for 5 days, twice daily) was “significantly reduced T. gondii infection”, the cytotoxicity [1] was >30 µM and the Kp [4] was 0.158.
